The values below come from patent publication US20230399320A1, “NOVEL CAPSID ASSEMBLY INHIBITOR” (Pelemed Co., Ltd., priority 2020, published 2023).

Assay [1] addresses T1, Cp149 (truncated form of a HBV core protein) (Hepatitis B virus genotype D subtype ayw, UniProt P03146).
T1 construct: Cp149 (amino acids 1-149) is a truncated form of a HBV core protein; histidine tag (cleaved yes); made in house; host or cells: Escherichia coli BL21(DE3)
Put plainly: Protein based assay: immunoblot analysis of in vitro HBV capsid assembly. The assay is classed as biochemical. The note with it: for inhibition at 0.1 µM: read-out: Protein based assay (% inhibition), 0.1 μM; for inhibition at 1 µM: read-out: Protein based assay (% inhibition), 1 μM. Here is the method:
Cp149 (amino acids 1-149) is a truncated form of a HBV core protein. It was expressed in Escherichia coli, and the expressed protein was purified. The recombinant Cp149 was expressed in E. coli BL21(DE3) cells cultured in LB medium at 37° C. When the culture reached an OD600 of 0.7 to 0.8, expression of the culture was induced with 0.5 mM isopropyl-β-d-thiogalactopyranoside and the culture was cooled to 16° C. After 16 hours, the cells were harvested, flash-frozen in liquid nitrogen, and stored at −80° C. To purify Cp149, thawed cells were resuspended in lysis buffer (20 mM Tris-HCl pH 9.0, 200 mM NaCl, 10 mM imidazole, 10 μg per mL DNaseI, 1 mM phenylmethylsulfonyl fluoride), and treated with ultrasonic waves. The supernatant was loaded onto Ni-NTA affinity resin. Proteins were eluted using a 20 mM to 500 mM imidazole gradient dissolved in lysis buffer. After removing the histidine tag with thrombin, the protein was further purified by HiTrap Q anion exchange chromatography (17115401, GE Healthcare).
To determine the effect on in vitro Cp149 assembly, compounds of the present invention were added to the Cp149-containing suspension. The final concentration of Cp149 was 1 mg per mL, and the compounds of the present invention were added at concentrations of 0.1 to 10 μM. The suspension was mixed with reaction buffer (150 mM HEPES, pH 7.5, 15 mM NaCl) added in a 2:1 ratio. In vitro assembly was performed at 37° C. for 1 hour, and HBV capsid was detected by immunoblot analysis using an anti-HBV core antibody (1:2000, B0586, Dako).
(In western blotting, separated proteins are transferred to a membrane and probed.)

The test system of a further assay is HBV DNA. Put plainly: Quantitative PCR for measuring HBV DNA in cells (HBV DNA quantification). The assay is classed as cell-based. Here is the method: After treating cells with the indicated compounds, HBV DNA secreted into the medium and intracellular HBV DNA were extracted, purified, and quantified by quantitative PCR. To isolate the secreted HBV DNA, the culture medium was recovered and centrifuged at 15,000×g to remove debris. The medium was diluted 1:1 with phosphate-buffered saline (PBS), and 1 M NaOH solution was added to a final concentration of 0.1 M. The mixture was incubated at 37° C. for 1 hour. The protein was denatured by adding 2M Tris-HCl solution (pH 7.5) to a final concentration of 0.2 M and incubating at 98° C. for 5 minutes. The protein precipitation was removed by centrifugation at 15,000×g, and the supernatant was subjected to PCR with HBV DNA primer and probe sets:
Forward: 5′-[…]-3′, Reverse: 5′-[…]-3′, Probe: 5′-[…]-3′.

[2] abbreviates: Hepatitis B virus; read-out: HBV DNA quantification (IC50 μM).
Setting [3] is: Hepatitis B virus, read-out: HBV DNA quantification (IC50 μM).

For orientation: inhibition means how much of the control response was suppressed. What is called IC50 is the concentration needed to halve the response being measured.

Like-named read-outs stand apart in the source and are kept apart here.

T1 sequence (P03146 1-149): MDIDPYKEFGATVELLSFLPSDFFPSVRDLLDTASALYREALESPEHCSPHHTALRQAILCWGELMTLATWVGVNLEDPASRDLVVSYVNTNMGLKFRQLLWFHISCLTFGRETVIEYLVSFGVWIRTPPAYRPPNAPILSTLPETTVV

Regarding `CS(=O)(=O)c1nc(Nc2ccc(F)cc2)cc(N2CCNCC2)n1` [Compound 26a, N-(4-fluorophenyl)-2-(methylsulfonyl)-6-(piperazin-1-yl)pyrimidin-4-amine], in assay [1] (read-out: Protein based assay (% inhibition, 10 μM)), the inhibition at 10 µM amounted to 86%. The half-maximal inhibitory concentration (IC50) in the assay with HBV DNA (setting [2]) worked out at 0.962 µM.

Take `CS(=O)(=O)c1nc(Nc2cc(F)c(F)c(F)c2)cc(N2CCNCC2)n1` [Compound 26b, 2-(methylsulfonyl)-6-(piperazin-1-yl)-N-(3,4,5-trifluorophenyl)pyrimidin-4-amine]: in assay [1], the inhibition at 0.1 µM was 39% and the inhibition at 1 µM worked out at 92%. In addition, the IC50 with HBV DNA (setting [2]) amounted to 0.203 µM.

As to `CS(=O)(=O)c1nc(Nc2ccc(F)c(Cl)c2)cc(N2CCNCC2)n1` [Compound 26c, N-(3-chloro-4-fluorophenyl)-2-(methylsulfonyl)-6-(piperazin-1-yl)pyrimidin-4-amine], in assay [1], the inhibition at 0.1 µM was determined as 47% and the inhibition at 1 µM came to 90%. Besides, in the assay on HBV DNA (setting [3]), the half-maximal inhibitory concentration (IC50) is 0.189 µM.

`CS(=O)(=O)c1nc(Nc2ccc(F)c(Br)c2)cc(N2CCNCC2)n1` [Compound 26d, N-(3-bromo-4-fluorophenyl)-2-(methylsulfonyl)-6-(piperazin-1-yl)pyrimidin-4-amine]: in assay [1], the inhibition at 0.1 µM amounted to 13% and the inhibition at 1 µM was determined as 98%. In addition, in the assay with HBV DNA (setting [2]), the IC50 was found to be 0.547 µM.

`CS(=O)(=O)c1nc(Nc2cc(F)c(F)c(F)c2)cc(NC2CCNCC2)n1` [Compound 26e, 2-(methylsulfonyl)-N^4-(piperidin-4-yl)-N^6-(3,4,5-trifluorophenyl)pyrimidine-4,6-diamine]: in assay [1], the inhibition at 0.1 µM amounted to 16% and the inhibition at 1 µM came to 90%. For the same compound, in the assay on HBV DNA (setting [2]), the IC50 turned out to be 0.19 µM.

As to `CS(=O)(=O)c1nc(Nc2ccc(F)c(Cl)c2)cc(NC2CCNCC2)n1` [Compound 26f, N^4-(3-chloro-4-fluorophenyl)-2-(methylsulfonyl)-N^6-(piperidin-4-yl)pyrimidine-4,6-diamine], in assay [1], the inhibition at 0.1 µM was 59% and the inhibition at 1 µM was 95%. The half-maximal inhibitory concentration (IC50) with HBV DNA (setting [3]) amounted to 0.199 µM.

For the compound `CS(=O)(=O)c1nc(Nc2ccc(F)c(Br)c2)cc(NC2CCNCC2)n1` [Compound 26g, N^4-(3-bromo-4-fluorophenyl)-2-(methylsulfonyl)-N^6-(piperidin-4-yl)pyrimidine-4,6-diamine], in assay [1], the inhibition at 0.1 µM is 7% and the inhibition at 1 µM came out at 97%. Also, the IC50 with HBV DNA (setting [2]) amounted to 0.536 µM.

Consider `CS(=O)(=O)c1nc(Nc2ccc(F)c(Cl)c2)cc(N2CCC(N)CC2)n1` [Compound 26i, 6-(4-aminopiperidin-1-yl)-N-(3-chloro-4-fluorophenyl)-2-(methylsulfonyl)pyrimidin-4-amine], for which, in assay [1], the inhibition at 0.1 µM was 52% and the inhibition at 1 µM worked out at 99%. Besides, the IC50 in the assay with HBV DNA (setting [3]) worked out at 0.181 µM.

`CS(=O)(=O)c1nc(Nc2ccc(F)c(Br)c2)cc(N2CCC(N)CC2)n1` [Compound 26j, 6-(4-aminopiperidin-1-yl)-N-(3-bromo-4-fluorophenyl)-2-(methylsulfonyl)pyrimidin-4-amine]: in assay [1], the inhibition at 0.1 µM turned out to be 10% and the inhibition at 1 µM was 98%. In the assay on HBV DNA (setting [2]), the IC50 stood at 0.48 µM.
